According to patent US20130266668A1, “USE OF HEMOGLOBIN EFFECTORS TO INCREASE THE BIOAVAILABILITY OF THERAPEUTIC GASES” (VIRGINIA COMMONWEALTH UNIVERSITY, priority 2010, published 2013):
Several values for one entry are separate records, joined by “and”; a condition that tells them apart may be missing. Identical values can stand only once. Each block holds one compound with its values, some of them ahead of it.

What was measured:
[1] = biological target: T1, erythswHb/HBOC-1 solution mixture (UniProt P01965+P01966+P02067+P02070); test: Effect of RSR-13 on oxygen affinity of erythswHb/HBOC-1 solution mixtures; type: biochemical, swine; conditions: 2 mM RSR-13
T1 construct: composed of either 15% or 20% hct whole blood in 13.4 g/dL of HBOC-1; is a highly purified bovine Hb that is crosslinked with gluteraldehyde; tissue BioPure Inc (HBOC-1 part); host or cells: swine whole blood (hct 15 or 20%) mixed with HBOC-1 (13.4 g/dL) at 75:25 or 50:50 by volume
T1 sequence (P01965 whole entry): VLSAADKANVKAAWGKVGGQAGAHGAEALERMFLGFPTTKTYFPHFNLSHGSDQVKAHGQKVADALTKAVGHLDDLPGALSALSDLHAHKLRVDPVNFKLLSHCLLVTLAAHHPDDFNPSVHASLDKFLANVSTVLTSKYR
T1 sequence (P02067 whole entry): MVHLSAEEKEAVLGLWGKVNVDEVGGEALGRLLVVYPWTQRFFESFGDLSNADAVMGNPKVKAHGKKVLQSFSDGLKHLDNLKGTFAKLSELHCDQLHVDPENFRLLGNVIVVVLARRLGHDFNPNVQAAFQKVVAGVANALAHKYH
T1 sequence (P01966 2-142 limits assumed): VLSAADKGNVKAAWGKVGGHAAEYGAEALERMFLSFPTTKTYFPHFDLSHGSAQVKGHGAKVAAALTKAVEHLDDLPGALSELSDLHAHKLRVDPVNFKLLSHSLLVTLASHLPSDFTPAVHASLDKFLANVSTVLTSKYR
T1 sequence (P02070 whole entry): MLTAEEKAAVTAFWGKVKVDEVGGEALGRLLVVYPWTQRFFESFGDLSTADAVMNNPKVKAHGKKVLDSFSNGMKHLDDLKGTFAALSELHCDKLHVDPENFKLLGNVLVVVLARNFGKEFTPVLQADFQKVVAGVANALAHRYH
Method: (§1) The effect of RSR-13 on the oxygen affinity of erythswHb and erythhHb, and HBOC-1 was determined using multiple-point tonometer. RSR-13 (1, 2 or 5 mM) was incubated with blood from swine or human (hct ˜30%) or HBOC-1 (13.4 g/dL) for 30 minutes. The Hb-compound mixture was then further incubated in IL 237 tonometers (Instrumentation Laboratories, Inc. Lexington, Mass.) for 5 minutes at 37° C. to equilibrate at oxygen tensions of 6 mmHg or 20 mmHg or 40 mmHg or 60 mmHg. Following, the sample is aspirated into an IL 1420 Automated Blood Gas Analyzer and an IL 682 Co-oximeter (Instrumentation Laboratories) or ABL 700 Blood Gas Analyzer (Radiometer, Westlake, Ohio) to determine the pH, pCO2, pO2, and Hb oxygen saturation values (SO2). The measured values of pO2 and SO2 were then subjected to a non-linear regression analysis using the program Scientist to estimate the P50 and Hill coefficient values (cooperativity of oxygen binding; n50).
RSR-13 (2 mM) was incubated with erythswHb (hct of 15 or 20%)/HBOC-1 (13.4 g/dL) solution mixture in a volume ratio of 75:25 and 50:50 for 30 minutes. The Hb-compound mixture was then analyzed for their P50 and Hill coefficient values as described above.

[2] = biological target: T2, NO derivative of cell free human Hb (NOhHb) (Homo sapiens, UniProt P68871+P69905); test: Effect of RSR-13 on Soret absorbance of NO derivative of cell free human Hb; type: biochemical
T2 construct: Human hemoglobin (hHb) or swine Hb (swHb) was purified from discarded blood samples; from tissue; host or cells: purified in house from discarded human blood samples
T2 sequence (P69905 2-142 limits assumed): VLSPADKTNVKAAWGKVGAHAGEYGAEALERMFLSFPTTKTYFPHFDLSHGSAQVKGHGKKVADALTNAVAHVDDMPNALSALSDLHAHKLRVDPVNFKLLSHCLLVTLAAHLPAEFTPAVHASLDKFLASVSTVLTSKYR
T2 sequence (P68871 2-147 limits assumed): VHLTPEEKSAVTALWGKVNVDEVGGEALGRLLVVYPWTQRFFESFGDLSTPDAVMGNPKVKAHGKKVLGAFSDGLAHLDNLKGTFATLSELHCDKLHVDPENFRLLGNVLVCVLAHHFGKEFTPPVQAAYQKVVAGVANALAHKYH
Method: (§2) Effect of RSR-13 on the absorption spectra in the soret region of the nitrosylated derivatives of cell free Hb from human and swine, and HBOC-1 were recorded at 37° C. using HP Agilant 8453 Spectrophotometer using 1 cm path length cuvette. Solid Na dithionite (2 mg/mL) was added to the Hb to make the fully deoxygenated Hb, followed by addition of solid diethylamine NONOate (1.3 mg/mL) to make the NOhHb or NOswHb, or NOHBOC-1 derivatives. RSR-13 (20 uM-800 uM) were added to 65 ug of the NO derivatives and the spectrum monitored in the soret region at 417 nm.

[3] = biological target: T3, swine whole blood or erythrocyte (erythswHb) (Sus scrofa, UniProt P01965+P02067); test: Effect of RSR-13 on oxygen affinity of swine whole blood (multiple-point tonometer); type: biochemical
T3 construct: from tissue; host or cells: swine whole blood (hct 30%, 20% or 15%)
Method: as §1, with “RSR-13 (1, 2 or 5 mM) was incubated with blood from swine or human (hct ˜30%) or HBOC-1 (13.4 g/dL) for 30 minutes.” left out

[4] = biological target: T4, whole blood (Homo sapiens, UniProt P68871+P69905); conditions: Phase I studies, doses of 75-100 mg/kg; cited from earlier work
T4 construct: host or cells: whole blood of dosed subjects
T4 sequence (P69905 2-142 limits assumed): as the sequence (P69905 2-142 limits assumed) above
T4 sequence (P68871 2-147 limits assumed): as the sequence (P68871 2-147 limits assumed) above

[5] = biological target: T5, HBOC-1 (13.4 g/dL) (Bos taurus, UniProt P01966+P02070); test: Effect of RSR-13 on oxygen affinity of HBOC-1 (multiple-point tonometer); type: biochemical, bovine
T5 construct: is a highly purified bovine Hb that is crosslinked with gluteraldehyde; purchased BioPure Inc
T5 sequence (P01966 2-142 limits assumed): as the sequence (P01966 2-142 limits assumed) above
T5 sequence (P02070 whole entry): as the sequence (P02070 whole entry) above
Method: as §1

[6] = biological target: T6, NO derivative of cell free swine Hb (NOswHb) (Sus scrofa, UniProt P01965+P02067); test: Effect of RSR-13 on Soret absorbance of NO derivative of cell free swine Hb; type: biochemical
T6 construct: Human hemoglobin (hHb) or swine Hb (swHb) was purified from discarded blood samples; from tissue; host or cells: purified in house from discarded swine blood samples
T6 sequence (P01965 whole entry): as the sequence (P01965 whole entry) above
T6 sequence (P02067 2-147 limits assumed): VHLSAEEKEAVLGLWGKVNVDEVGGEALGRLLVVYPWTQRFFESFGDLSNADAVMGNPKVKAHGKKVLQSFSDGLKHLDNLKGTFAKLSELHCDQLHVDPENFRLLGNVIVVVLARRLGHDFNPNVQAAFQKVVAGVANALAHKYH
Method: as §2

[7] = biological target: T7, human whole blood or erythrocyte (erythhHb) (Homo sapiens, UniProt P68871+P69905); test: Effect of RSR-13 on oxygen affinity of human whole blood (multiple-point tonometer); type: biochemical; conditions: human blood hct 30%
T7 construct: from tissue; host or cells: human whole blood (hct ~30%)
Method: as §1

[8] = biological target: T8, COHb in swine whole blood (hct of 30%) (Sus scrofa, UniProt P01965+P02067); test: Effect of RSR-13 on COHb levels of swine blood; type: biochemical; conditions: 2 mM RSR-13, after 30 minutes
T8 construct: from tissue; host or cells: swine whole blood (hct 30%, 20% or 15%)
T8 sequence (P01965 whole entry): as the sequence (P01965 whole entry) above
T8 sequence (P02067 2-147 limits assumed): as the sequence (P02067 2-147 limits assumed) above
Method: (§3) To determine whether RSR-13 will reduce COHb levels in swine blood or HBOC-1, we incubated HBOC-1 (13.4 g/dL) that has been exposed to CO to form ˜51% COHb, and swine whole blood (hct of 30%) that has been exposed to CO to form ˜52 or 10% COHb concentrations with 2 mM RSR-13. RSR-13 was able to reduce the amount of COHb by about 16% in the swine blood in the experiment starting with either 10% or 52% COHb level, and about 14% in the HBOC-1.

[9] = biological target: T9, NO derivative of HBOC-1 (NOHBOC-1) (Bos taurus, UniProt P01966+P02070); test: Effect of RSR-13 on Soret absorbance of NO derivative of HBOC-1; type: biochemical, bovine
T9 construct: is a highly purified bovine Hb that is crosslinked with gluteraldehyde; purchased BioPure Inc
T9 sequence (P01966 2-142 limits assumed): as the sequence (P01966 2-142 limits assumed) above
T9 sequence (P02070 whole entry): as the sequence (P02070 whole entry) above
Method: as §2

[10] = biological target: T10, COHb in HBOC-1 (13.4 g/dL) (Bos taurus, UniProt P01966+P02070); test: Effect of RSR-13 on COHb levels of HBOC-1; type: biochemical, bovine; conditions: HBOC-1 13.4 g/dL exposed to CO to ~51% COHb (control 51.1), 2 mM RSR-13, after 30 minutes
T10 construct: is a highly purified bovine Hb that is crosslinked with gluteraldehyde; purchased BioPure Inc
T10 sequence (P01966 2-142 limits assumed): as the sequence (P01966 2-142 limits assumed) above
T10 sequence (P02070 whole entry): as the sequence (P02070 whole entry) above
Method: as §3

[11] = Oxygen affinity of HBOC-1 itself, without RSR-13 (multiple-point tonometer); type: biochemical, bovine; conditions: HBOC-1 13.4 g/dL alone, 0 RSR-13
Method: as §1

[12] = Blood/HBOC (50:50), swine blood hct 15%
[13] = Blood/HBOC (50:50), swine blood hct 20%
[14] = Blood/HBOC (75:25), swine blood hct 15%
[15] = Blood/HBOC (75:25), swine blood hct 20%
[16] = swine blood (100%) hct 15%, 2 mM RSR-13
[17] = swine blood (100%) hct 20%, 2 mM RSR-13
[18] = swine blood hct 30%, 1 mM RSR-13
[19] = swine blood hct 30%, 2 mM RSR-13
[20] = swine blood hct 30%, 5 mM RSR-13

P50 [1, 12]: 74.0 ± 2.1 mmHg
n50 [1, 12]: 1.5 ± 0.1
ΔP50 [1, 12]: 21.2 mmHg
P50 [1, 13]: 68.0 ± 4.2 mmHg
n50 [1, 13]: 1.8 ± 0.3
ΔP50 [1, 13]: 20.5 mmHg
P50 [1, 14]: 75.1 ± 5.6 mmHg
n50 [1, 14]: 1.7 ± 0.1
ΔP50 [1, 14]: 27.6 mmHg
P50 [1, 15]: 61.5 ± 3.6 mmHg
n50 [1, 15]: 2.1 ± 0.1
ΔP50 [1, 15]: 18.1 mmHg
Percentage (%) decrease in absorbance intensity at 417 nm ([2]; 20 uM RSR-13): 3.2 ± 0.4%
Percentage (%) decrease in absorbance intensity at 417 nm ([2]; 100 uM RSR-13): 8.9 ± 0.3%
Percentage (%) decrease in absorbance intensity at 417 nm ([2]; 200 uM RSR-13): 13.2 ± 0.3%
Percentage (%) decrease in absorbance intensity at 417 nm ([2]; 300 uM RSR-13): 16.5 ± 0.4%
P50 [3, 16]: 62.3 ± 0.5 mmHg
n50 [3, 16]: 2.2 ± 0.2
ΔP50 [3, 16]: 25.0 mmHg
P50 [3, 17]: 51.3 ± 3.2 mmHg
n50 [3, 17]: 2.2 ± 0.1
ΔP50 [3, 17]: 16.8 mmHg
P50 [3, 18]: 34.5 ± 0.2 mmHg
n50 [3, 18]: 2.6 ± 0.3
ΔP50 [3, 18]: 3.9 mmHg
P50 [3, 19]: 41.5 ± 0.5 mmHg
n50 [3, 19]: 2.3 ± 0.0
ΔP50 [3, 19]: 11.3 mmHg
P50 [3, 20]: 72.1 ± 1.3 mmHg
n50 [3, 20]: 1.9 ± 0.1
ΔP50 [3, 20]: 41.5 mmHg
P50 ([5]; 2 mM RSR-13): 73.6 ± 3.0 mmHg
n50 ([5]; 2 mM RSR-13): 1.1 ± 0.3
ΔP50 ([5]; 2 mM RSR-13): 15.1 mmHg
P50 ([5]; 5 mM RSR-13): 83.5 ± 3.4 mmHg
n50 ([5]; 5 mM RSR-13): 1.1 ± 0.3
ΔP50 ([5]; 5 mM RSR-13): 25 mmHg and 25.0 mmHg
Percentage (%) decrease in absorbance intensity at 417 nm ([6]; 20 uM RSR-13): 3.3 ± 0.4%
Percentage (%) decrease in absorbance intensity at 417 nm ([6]; 100 uM RSR-13): 7.9 ± 0.4%
Percentage (%) decrease in absorbance intensity at 417 nm ([6]; 200 uM RSR-13): 14.9 ± 0.3%
Percentage (%) decrease in absorbance intensity at 417 nm ([6]; 300 uM RSR-13): 17.1 ± 0.5%
P50 ([7]; 1 mM RSR-13): 35.1 ± 2.2 mmHg
n50 ([7]; 1 mM RSR-13): 2.4 ± 0.2
ΔP50 ([7]; 1 mM RSR-13): 3.3 mmHg
P50 ([7]; 2 mM RSR-13): 42.0 ± 1.7 mmHg
n50 ([7]; 2 mM RSR-13): 2.0 ± 0.3
ΔP50 ([7]; 2 mM RSR-13): 10.2 mmHg
P50 ([7]; 5 mM RSR-13): 78.0 ± 1.2 mmHg
n50 ([7]; 5 mM RSR-13): 1.8 ± 0.1
ΔP50 ([7]; 5 mM RSR-13): 46.2 mmHg
COHb levels ([8]; swine blood hct 30% exposed to CO to ~10% COHb (control 10.2)): 8.5 ± 0.3%
COHb levels ([8]; swine blood hct 30% exposed to CO to ~52% COHb (control 52.4)): 44.2 ± 1.0%
Percentage (%) decrease in absorbance intensity at 417 nm ([9]; 100 uM RSR-13): 4.7 ± 0.2%
Percentage (%) decrease in absorbance intensity at 417 nm ([9]; 200 uM RSR-13): 6.1 ± 0.3%
Percentage (%) decrease in absorbance intensity at 417 nm ([9]; 300 uM RSR-13): 7.8 ± 0.5%
Percentage (%) decrease in absorbance intensity at 417 nm ([9]; 800 uM RSR-13): 15.5 ± 0.5%
COHb levels [10]: 44.1 ± 0.7%
Compound: Cc1cc(C)cc(NC(=O)Cc2ccc(OC(C)(C)C(=O)O)cc2)c1 [RSR-13, 2-[4-[2-[(3,5-dimethylphenyl)amino]-2-oxoethyl]phenoxy]-2-methylpropanoic acid]
increase of the P50 of whole blood [4]: 10 Torr

Compound: HBOC-1: Oxyglobin® from BioPure Inc: highly purified bovine Hb that is crosslinked with gluteraldehyde
P50 [11]: 58.5 mmHg and 58.5 ± 6.9 mmHg
n50 [11]: 1.2 and 1.2 ± 0.3
